# Measurements as given in patent US6589965B2, “Method of treating and preventing migraine headaches” (Pharmacia & Upjohn Company, priority 2001, dated 2003).
# Key:
# migraine headache = details: cited from earlier work; for efficacy in acute treatment of migraine (in words): literature reports
# [1] = system: quinpirole-induced yawning in rats; assay: antagonism of quinpirole-induced yawning in rats; type: in vivo, Male Sprague Dawley Rats
# Method: Yawning is a behavior that has been linked to activation of dopaminergic neurotransmission.
# Male Sprague Dawley Rats were used in this example. The animals were allowed 12 day acclimatization before testing and at the time of the study, their body weights ranged from 280-330 grams. The rats were housed in standard size steel cages with four animals per cage and were maintained on a 12 hour light/dark schedule with the lights being on from 6:00 a.m. to 6:00 p.m. All tests were performed between 8:00 a.m. and 2:00 p.m. Six animals were used per group.
# The animals were then placed individually in a 6″×6″plexiglass observation cages and the number of yawns were counted for the subsequent 30 minutes. The results are shown in FIG. 1 with the data being expressed as the mean total number of yawns per 30 minutes. An analysis of variance was used for statistical calculations and probability levels of <0.05 was regarded as being statistically significant.
# migraine = details: literature reports; cited from earlier work
# D2 dopamine receptor = D2 dopamine receptor (Homo sapiens, UniProt P14416); details: cited from earlier work
# D2 dopamine receptor, sequence (P14416 whole entry): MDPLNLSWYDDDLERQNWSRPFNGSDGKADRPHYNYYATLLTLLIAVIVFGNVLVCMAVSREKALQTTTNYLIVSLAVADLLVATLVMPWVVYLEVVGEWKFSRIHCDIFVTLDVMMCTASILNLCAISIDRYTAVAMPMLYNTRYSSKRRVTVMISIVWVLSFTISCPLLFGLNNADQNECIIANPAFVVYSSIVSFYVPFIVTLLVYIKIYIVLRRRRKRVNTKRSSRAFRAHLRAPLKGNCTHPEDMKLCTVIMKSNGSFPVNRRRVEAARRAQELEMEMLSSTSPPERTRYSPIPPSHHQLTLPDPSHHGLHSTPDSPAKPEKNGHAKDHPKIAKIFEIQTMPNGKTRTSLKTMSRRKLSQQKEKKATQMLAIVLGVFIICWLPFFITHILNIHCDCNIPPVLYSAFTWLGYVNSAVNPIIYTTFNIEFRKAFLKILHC
# [2] = within 60 minutes of administration, randomized, double-blind clinical trial (Jones et al 1989)
structure (smiles),measurement,setting,value
CN(C)CCCN1c2ccccc2Sc2ccc(Cl)cc21 [Chlorpromazine],efficacy in acute treatment of migraine (in words),migraine headache,highly effective
same,common side effect,migraine headache; migraine patients in an emergency department (Lane et al 1985),moderate drowsiness
"CCCN1CCC[C@@H](c2cccc(S(C)(=O)=O)c2)C1 [Cmpd 1, S-(−)-3-[3-(methylsulfonyl)phenyl]-1-propyl-piperidine]",antagonism of the yawning behavior induced by quinpirole,[1]; 10 or 30 mg/kg injected 15 minutes before quinpirole 0.1 mg/kg,dose-dependent and complete antagonism
same,induction of yawning behavior by compound given alone,[1]; given alone at a dose of 30 mg/kg,failed to induce yawning behavior
O=c1[nH]c2ccccc2n1CCCN1CCC(n2c(=O)[nH]c3cc(Cl)ccc32)CC1 [Domperidone],preventive / prophylactic effect on migraine (in words),migraine,prevent the occurrence of a migraine
Fc1ccc(C(c2ccc(F)cc2)N2CCN(C/C=C/c3ccccc3)CC2)cc1 [Flunarizine],affinity for the D2 dopamine receptor (in words),D2 dopamine receptor,moderate degree of affinity
same,efficacy in acute treatment of migraine (in words),migraine headache,high degree of relief
CCN(CC)CCNC(=O)c1cc(Cl)c(N)cc1OC [Metoclopramide],affinity for the D2 dopamine receptor (in words),D2 dopamine receptor,relatively low affinity
same,preventive / prophylactic effect on migraine (in words),migraine,beneficial effect
CN1CCN(CCCN2c3ccccc3Sc3ccc(Cl)cc32)CC1 [Prochlorperazine],efficacy in acute treatment of migraine (in words),migraine headache,high degree of efficacy
same,additional patients with partial relief,migraine headache; [2],14%
same,patients with complete relief,migraine headache; [2],74%
O=C(CCCN1CCC(O)(c2ccc(Cl)cc2)CC1)c1ccc(F)cc1 [haloperidol],patients with headache completely or substantially relieved,"migraine headache; Fisher, J Emerg Med 1995",six of six
same,time to headache relief after administration,"migraine headache; Fisher, J Emerg Med 1995",25 to 65 min
